Reference: BindingDB's records for patent US11964973 (Bristol-Myers Squibb, 2024)

Columns and labels:
[1] = molecular target: Diacylglycerol kinase zeta (Homo sapiens, UniProt Q13574); assay: In Vitro DGK Inhibition Assay
Method: (§1) The DGKα and DGKζ reactions were performed using either extruded liposome (DGKα and DGKζ LIPGLO assays). […] Luminescence was recorded using an EnVision microplate reader.

[2] = molecular target: Diacylglycerol kinase alpha (Homo sapiens, UniProt P23743); assay: In Vitro DGK Inhibition Assay
Method: as §1

Diacylglycerol kinase zeta, sequence (Q13574 as listed by the source): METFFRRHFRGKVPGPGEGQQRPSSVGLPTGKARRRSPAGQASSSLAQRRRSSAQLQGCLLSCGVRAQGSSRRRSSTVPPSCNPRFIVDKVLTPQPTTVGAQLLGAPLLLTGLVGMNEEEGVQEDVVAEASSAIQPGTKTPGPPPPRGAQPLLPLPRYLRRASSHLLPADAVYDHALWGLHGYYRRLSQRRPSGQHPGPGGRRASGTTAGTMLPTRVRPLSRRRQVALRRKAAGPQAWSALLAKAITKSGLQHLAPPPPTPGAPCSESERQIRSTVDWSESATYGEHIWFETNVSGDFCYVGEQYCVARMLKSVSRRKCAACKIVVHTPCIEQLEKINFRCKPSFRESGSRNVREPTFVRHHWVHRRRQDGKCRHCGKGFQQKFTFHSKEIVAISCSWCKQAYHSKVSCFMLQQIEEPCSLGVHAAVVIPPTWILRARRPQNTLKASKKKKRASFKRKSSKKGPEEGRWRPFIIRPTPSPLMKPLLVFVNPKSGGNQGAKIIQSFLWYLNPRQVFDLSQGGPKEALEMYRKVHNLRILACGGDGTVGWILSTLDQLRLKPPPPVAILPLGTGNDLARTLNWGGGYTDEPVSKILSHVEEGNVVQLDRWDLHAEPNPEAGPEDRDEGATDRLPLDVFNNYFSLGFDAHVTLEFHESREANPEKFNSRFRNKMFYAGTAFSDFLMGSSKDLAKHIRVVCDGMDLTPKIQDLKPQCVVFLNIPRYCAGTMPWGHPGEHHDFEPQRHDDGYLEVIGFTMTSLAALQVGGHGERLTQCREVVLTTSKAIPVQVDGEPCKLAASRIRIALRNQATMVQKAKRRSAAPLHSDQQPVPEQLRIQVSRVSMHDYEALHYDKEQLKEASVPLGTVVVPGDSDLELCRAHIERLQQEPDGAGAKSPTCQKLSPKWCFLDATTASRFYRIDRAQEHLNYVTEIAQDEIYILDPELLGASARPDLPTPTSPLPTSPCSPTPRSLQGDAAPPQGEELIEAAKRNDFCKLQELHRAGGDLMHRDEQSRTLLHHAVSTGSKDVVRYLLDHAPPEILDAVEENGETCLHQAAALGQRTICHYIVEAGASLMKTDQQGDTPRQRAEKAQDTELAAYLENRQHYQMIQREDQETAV
Diacylglycerol kinase alpha, sequence (P23743 whole entry): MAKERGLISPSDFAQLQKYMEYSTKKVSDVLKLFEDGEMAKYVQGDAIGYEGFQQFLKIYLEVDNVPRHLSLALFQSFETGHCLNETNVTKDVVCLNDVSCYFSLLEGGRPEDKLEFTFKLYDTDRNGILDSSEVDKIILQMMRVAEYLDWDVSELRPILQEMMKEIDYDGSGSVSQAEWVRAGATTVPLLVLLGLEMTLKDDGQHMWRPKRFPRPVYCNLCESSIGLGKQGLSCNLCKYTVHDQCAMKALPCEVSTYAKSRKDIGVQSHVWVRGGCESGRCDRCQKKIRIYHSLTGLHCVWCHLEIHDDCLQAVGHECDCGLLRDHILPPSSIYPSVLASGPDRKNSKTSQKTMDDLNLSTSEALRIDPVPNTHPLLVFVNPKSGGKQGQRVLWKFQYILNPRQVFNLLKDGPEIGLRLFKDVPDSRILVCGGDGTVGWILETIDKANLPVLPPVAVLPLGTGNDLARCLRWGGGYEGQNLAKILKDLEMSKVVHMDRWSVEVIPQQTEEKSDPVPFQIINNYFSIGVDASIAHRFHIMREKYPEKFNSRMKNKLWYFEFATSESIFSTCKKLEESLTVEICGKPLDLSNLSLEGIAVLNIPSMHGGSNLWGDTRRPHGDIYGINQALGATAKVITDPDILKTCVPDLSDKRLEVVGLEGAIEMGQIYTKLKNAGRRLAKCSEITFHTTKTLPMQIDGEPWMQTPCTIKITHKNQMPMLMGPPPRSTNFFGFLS

For `CCO[C@H]1CN(c2cc(=O)n(C)c3ccc(C#N)nc23)CC[C@@H]1Oc1ccc(OC(C)C)cn1` (relative stereo) [US11964973, Example 397], the IC50 [1] was 420 nM.
Compound `Cn1c(=O)cc(N2CCC(Oc3ccc(C(C)(C)C)cc3)CC2)c2cc(C#N)ccc21` [US11964973, Example 53] has an IC50 [2] of 770 nM and an IC50 [1] of 2000 nM.
